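Five concentrations, 48 hours, 96-well plates. The concentration for full growth arrest is given as TGI.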 A value given as a limit tells only on which side of the number the result lay.

Holding throughout (assay): growth of human tumour cells (NCI), 48 h
In test [1] the test system is 786-0 renal.
Test [2] relates to DU-145 prostate.
For test [3], the system named is HL-60(TB) leukemia.
Test [4] has as its system HT29 colon.
For test [5], the system named is IGROV1 ovarian.
Test [6] deals with KM12 colon.
Test [7] deals with MDA-MB-435.
Test [8] concerns NCI/ADR-RES ovarian.
Test [9] relates to OVCAR-3 ovarian.
Test [10] concerns RPMI-8226 leukemia.
Test [11] has as its system RXF 393 renal.
The subject of test [12] is SK-MEL-28 melanoma.
The test system of test [13] is SK-MEL-5 melanoma.
Test [14] has as its system SNB-19 CNS.
For test [15], the system named is UACC-257 melanoma.
For test [16], the system named is MOLT-4 leukemia.
Test [17] has as its system A498 renal.

For `O=S(Cc1ccccc1)c1ccccc1Cn1cccc1` (configuration not stated), the TGI in [1], in test [2], in test [3], in test [4], in test [5] and in [6] was > 100 µM throughout. Also, the TGI in test [7], in [8], in test [9], in test [10], in test [11] and in [12] was > 100 µM each time. Further, the TGI in test [13], in test [14] and in test [15] was > 100 µM each time.

As for `CCCC(=O)OCC1OC(n2cc(F)c(=O)[nH]c2=O)C(F)C1O` (configuration not stated), the TGI in [1] is > 100 µM; in [2], > 67.1 µM; in test [3], > 100 µM; in test [4] it was > 100 µM; in [5], > 100 µM; in test [6], > 100 µM. Further, the TGI in test [7], in test [16], in test [8], in test [9], in [10] and in test [11] was > 100 µM throughout. For the same compound, the TGI in test [12], in test [13], in [14] and in test [15] was > 100 µM in each case.

`CC(C(=O)NCNC(=O)c1ccccc1)C(=O)Nc1ccccc1` (configuration not stated): the TGI in test [1], in [2], in test [3], in test [4], in test [5] and in [6] was > 100 µM each time. In addition, the TGI in test [7], in test [8], in test [10], in test [11], in [13] and in test [14] was > 100 µM each time. The TGI in test [15] is > 100 µM.

As for `CN(C)c1ccc(N=C2N=C(Nc3ccccc3)C(=Nc3ccccc3)S2)cc1`, the TGI in test [1], in test [17], in [2], in [3], in test [4] and in [5] was > 100 µM in each case. Besides, the TGI in test [6], in test [7], in [16], in test [8], in test [9] and in [11] was > 100 µM throughout. For the same compound, the TGI in [12], in test [13], in test [14] and in test [15] was > 100 µM in each case.

Consider `N#CC(O)CCOCc1ccccc1` (configuration not stated), for which the TGI in [1], in test [17], in [2], in [3], in test [4] and in test [5] was > 100 µM each time. The TGI was > 100 µM in [6]; > 100 µM in [7]; 14.8 µM in test [16]; > 100 µM in test [8]; > 100 µM in test [9]; > 100 µM in test [10]. The TGI in [12], in test [13], in test [14] and in [15] was > 100 µM each time.

On to `O=c1c2ccccc2n2c(-c3ccccc3O)nnc2n1-c1ccccc1`, for which the TGI in test [1], in test [17], in [2], in test [3], in test [4] and in [5] was > 100 µM in each case. Besides, the TGI in [6], in test [7], in test [16], in test [8], in test [9] and in test [11] was > 100 µM each time. The TGI in test [12], in test [13], in test [14] and in [15] was > 100 µM throughout.

In the case of `O=C(C[C@@H]1CCCN2CCCC[C@H]12)N1c2ccccc2Sc2ccc(Cl)cc21`, the TGI in [1] came out at 23.1 µM; in test [2], 28.2 µM; in test [3] it was 36.8 µM; in [4], 22.8 µM; in test [5] it was 25.6 µM; in test [6] it was 27.6 µM. In addition, the TGI is 29.3 µM in test [7]; 30 µM in test [16]; 29.4 µM in test [8]; 31.9 µM in [9]; 54.8 µM in [10]; 29 µM in test [11]. The TGI in test [12] was determined as 26.3 µM; in test [13] it was 23.9 µM; in test [14] it was 31.1 µM; in [15], 25.6 µM.

Consider `NC(=O)c1ncn(C2C=CC(CP(=O)(O)O)C2)c1N` (configuration not stated), for which the TGI in test [1], in test [2], in test [3], in test [4], in [5] and in test [6] was > 100 µM throughout. Moreover, the TGI in test [7], in [16], in test [8], in test [9], in test [10] and in [11] was > 100 µM each time. Besides, the TGI in test [12], in [13], in test [14] and in test [15] was > 100 µM in each case.

Take `C/C(=N\O)c1ccc(OCc2cc(C(F)(F)F)cc(C(F)(F)F)c2)cc1`: the TGI in test [1] is > 100 µM; in [17], > 100 µM; in test [2], > 100 µM; in test [3], 25.5 µM; in test [4] it was > 100 µM; in [5], > 100 µM. For the same compound, the TGI is 43.9 µM in test [6]; > 100 µM in test [7]; 68.5 µM in test [16]; > 100 µM in test [8]; > 100 µM in [9]; 72.4 µM in [11]. In addition, the TGI in [12], in [13], in test [14] and in test [15] was > 100 µM throughout.

Turning to `Cc1[nH]c2ncn3[nH]c(=S)nc3c2c1Cc1ccccc1`, the TGI in test [1], in [17], in test [2], in test [3], in [4] and in test [5] was > 100 µM throughout. For the same compound, the TGI in [6], in test [7], in test [16], in [8], in [9] and in test [11] was > 100 µM each time. The TGI in test [12], in test [13], in [14] and in test [15] was > 100 µM throughout.

With `Cc1cc(C)c2c(=O)n(CC(O)CN(Cc3ccccc3)CC(O)Cn3sc4nc(C)cc(C)c4c3=O)sc2n1` (configuration not stated), the TGI was 27.7 µM in [1]; 31.7 µM in test [2]; > 100 µM in test [3]; 37.4 µM in test [4]; 31.7 µM in test [5]; 31.4 µM in test [6]. For the same compound, the TGI in test [7] is 31.4 µM; in [16] it was > 100 µM; in test [8] it was 67.2 µM; in [9], 29.8 µM; in test [10] it was > 100 µM; in test [11] it was 33.6 µM. Also, the TGI in test [12] worked out at 74.1 µM; in test [13], 30.1 µM; in test [14], 34.7 µM; in test [15] it was 31.7 µM.

As for `O=c1[nH]c2nc3ccccc3c(=O)n2/c1=C/c1ccccc1`, the TGI in test [1] was 96.6 µM; in test [2], > 100 µM; in test [3] it was > 100 µM; in test [4], 39.1 µM; in [5], > 100 µM; in test [6], > 100 µM. The TGI in [7] was 59 µM; in [16], > 100 µM; in test [8], > 100 µM; in test [9] it was > 100 µM; in test [10] it was > 100 µM; in test [11] it was > 100 µM. The TGI is > 100 µM in test [12], > 100 µM in test [13], 55.9 µM in test [14] and > 100 µM in test [15].

In the case of `Cc1ccc(S(=O)(=O)C2=Cc3ccccc3C2(O)c2ccccc2)cc1` (configuration not stated), the TGI in test [1] is > 10 µM; in test [17], > 10 µM; in [2], > 100 µM; in test [3], 29.6 µM; in [4], 36.1 µM; in [5] it was > 100 µM. Besides, the TGI in test [6] was 37.6 µM; in test [7] it was 69.9 µM; in test [16], > 100 µM; in test [8], 76.6 µM; in test [10], 44.7 µM; in test [12] it was 31.1 µM. In addition, the TGI in test [13] is 31.2 µM; in test [14], > 100 µM; in [15], > 10 µM.

On to `O=C(NC(CS)C(=O)O)c1c2ccccc2nc2ccccc12` (configuration not stated), for which the TGI in test [1], in test [17], in test [2], in [3], in [4] and in [5] was > 100 µM each time. Also, the TGI is > 100 µM in test [6]; 16 µM in test [7]; > 100 µM in [16]; > 100 µM in [8]; > 100 µM in [9]; > 100 µM in [10]. In addition, the TGI in test [12] is > 100 µM; in [13], 12.8 µM; in [14], > 100 µM; in test [15] it was > 100 µM.

In the case of `Nc1ccc(Oc2ccc(C34CC5CC(C3)CC(c3ccc(Oc6ccc(N)cc6C(F)(F)F)cc3)(C5)C4)cc2)c(C(F)(F)F)c1`, the TGI in test [1] is > 100 µM; in [17], 35.2 µM; in [2] it was > 100 µM; in test [3] it was > 100 µM; in test [4], 35.6 µM; in test [5] it was 37.9 µM. Further, the TGI is 67.6 µM in [6]; 84.2 µM in [7]; > 100 µM in [16]; 54.9 µM in [8]; 37.7 µM in test [9]; 25.1 µM in test [11]. The TGI was > 100 µM in [12], 39.9 µM in [13], 48.9 µM in test [14] and 40.3 µM in test [15].

Consider `Cc1n[nH]c(=O)n1C1CC1`, for which the TGI in test [1], in test [2], in [3], in [4], in [5] and in test [6] was > 100 µM each time. Besides, the TGI in test [7], in test [16], in test [8], in [9], in test [10] and in test [11] was > 100 µM throughout. Moreover, the TGI in test [12], in test [13], in test [14] and in [15] was > 100 µM throughout.

As for `COC(=O)CN(CC(=O)NCCNC(=O)OC(C)(C)C)C1CCCCC1N(CC(=O)OC)CC(=O)OC` (configuration not stated), the TGI in [1], in test [17], in test [2], in test [3], in test [4] and in test [5] was > 100 µM each time. Further, the TGI in [6], in test [7], in [16], in [8], in [9] and in [10] was > 100 µM in each case. The TGI in [12], in test [13], in test [14] and in test [15] was > 100 µM in each case.

For the origin of these results see PubChem BioAssay (NCI).
